Laboratory results reported in US20170166928A1, “Compositions And Methods For Genetically Modifying Yeast” (priority 2015, published 2017).

Tested on: Candida albicans
Test: Growth of Candida albicans strains in medium with drug
Type: cell-based
Conditions: for drug resistance of cdr1/cdr1 cdr2/cdr2 double mutants versus parental isolate: clinical isolate Can90; for doubling time: liquid growth in 1.2 μg/ml fluconazole
Protocol: Candida albicans strain SC5314 was used for all experiments unless otherwise noted. The fluconazole-resistant C. albicans strain Can90 was kindly provided by the Massachusetts General Hospital. Yeast strains were grown in YPD (1% Bacto Yeast extract, 2% Bacto Peptone, 2% Dextrose) medium supplemented with 0.27 mM uridine, and selected using Nourseothricin (Nat) at a concentration of 200 μg/ml. Transformations were performed using the lithium acetate method (27). Flipout of Nat^R gene from Cas9-expressing Duet vector pV1025 was done by induction of flippase by growth in Difco yeast carbon base with bovine serum albumin, and screening for isolates that had lost the Nat^R gene. Filamentation experiments were performed with yeast grown overnight in liquid YPD, washed twice in RPMI-1640 medium (Cat #22400-105, Life Technologies) supplemented with 10% fetal bovine serum, and incubated in RPMI+10% FBS for the indicated time at a starting OD of 0.1. Growth curves were performed in a clear-bottomed 96-well plate, incubated with shaking at 30° C. in a Tecan Saphire^2 plate reader, reading optical density at 600 nm every 5 minutes for the indicated time. YPD-grown overnight yeast cultures were used to inoculate these wells to an initial OD of 0.05. CRISPR-mutagenized loci were verified by sequence analysis of PCR products amplified from the target locus and by restriction digest where applicable.

Structure (SMILES)	drug resistance of cdr1/cdr1 cdr2/cdr2 double mutants versus parental isolate	drug sensitivity of snf1-K81R strain (SC5314 snf1-K81R)	doubling time (ade2 CDR1 CDR2 strain) [h]	doubling time (ade2 cdr1 cdr2 mutant) [h]
C[C@@H]1C[C@@H]([C@H](O)CC2CC(=O)NC(=O)C2)C(=O)[C@@H](C)C1 [cycloheximide]	no longer displayed the hyper-resistance			
OC(Cn1cncn1)(Cn1cncn1)c1ccc(F)cc1F [fluconazole]	no longer displayed the hyper-resistance	hypersensitive	6	12
